Experiments:
Mouse Hepatocyte = assay: Metabolic stability in mouse hepatocytes; type: in vitro ADME; details: mouse cryopreserved hepatocytes, 1 μM
Procedure: (§1) The aim of this assay is to determine the metabolic stability of the compound in hepatocytes (cryopreserved) of different species. Low hepatocyte stability may result in the formation of unwanted metabolites, high clearance, and therefore is not desirable.
(§2) A 10 mM stock solution of test compound in DMSO was first diluted in DMSO to 3 mM, and then in modified Krebs-Henseleit buffer (Sigma, K3753) to 5 μM. This compound dilution was added to a suspension of pooled cryopreserved hepatocytes (BioreclamationIVT) at 37° C. under gentle shaking.
(§3) Final reaction conditions were: 1 μM of test compound, 0.03% DMSO, 0.5 million viable hepatocytes/mL, and 75 μL incubation volume.
(§4) Testosterone (1 μM) and 7-hydroxycoumarin (1 μM) were used, respectively as phase I and phase II metabolic reaction controls.
(§5) After 0, 10, 20, 45, 90, 120 and 180 min of incubation, the reaction was terminated with 225 μL of MeCN:MeOH (2:1) containing 100 ng/mL of diclofenac as analytical internal standard. Samples were mixed, centrifuged and the supernatant analyzed by LC-MS/MS.
(§6) The instrument responses (ratios of test compound and internal standard peak areas) were referenced to the zero time point samples (considered as 100%) in order to determine the percentage of compound remaining.
(§7) Plots of percentage compound remaining were used to determine the intrinsic clearance in the hepatocyte incubations using the following equations:
(§8) Scaled Clint [L/h/kg]=Clint [μL/min/10^6 cells]*#(10) cells/g liver*60*(1/10^6) Scaled Clint unbound [L/h/kg]=Clint [L/h/kg]/Fu,inc where: fu,inc equals hepatocyte binding, derived from microsomal binding (fu,mic) by following equation: […]

Human Hepatocyte = assay: Metabolic stability in human hepatocytes; type: in vitro ADME; details: human cryopreserved hepatocytes, 1 μM
Procedure: as §1, §2, §3, §4, §5, §6, §7, §8

[1] = tested on: CL097 triggered IFNα release in human whole blood; assay: Ex vivo human IFNα release inhibition (whole blood assay); type: cell-based; details: CL097 2 μg/mL, 3 h 30 min
Text: (§9) The aim of the assay is to evaluate the activity of compounds of the invention on the activated TLR/IRAK-4 pathway in an ex vivo human whole blood setting. Toll-like receptors (TLRs) are pattern recognition receptors that recognize a wide variety of microbial molecules, called pathogen-associated molecular patterns (PAMPs). Human TLR7 and TLR8 recognize imidazoquinoline compounds (e.g., CL097—CAS n #1026249-18-2) and single stranded RNAs as their natural ligands. Activation of TLRs leads to the production of several cytokines (e.g., IFNα, TNFα, IL-8, IL-6) by the TLR agonist-treated cells, whereas IRAK4 leads to the production of IFNα. Cytokine release is used as readout in this assay and represents a measure for the level of inhibition of the TLR/IRAK-4 pathway by the tested compound. It should be noted that in the context of the complete organism, other sources for these cytokines exist that are not dependent on the TLR/IRAK-4 pathway, such as e.g., macrophages (upon activation of the Fcγ receptor (Yan et al. 2012)) or T cells (upon activation of the T cell receptor (Brehm, Daniels, and Welsh 2005)).
(§10) Blood is collected from healthy volunteers into lithium heparin tubes by venipuncture, then gently inverted several times to prevent clotting and incubated for at least 15 min at 37° C. on a rocking mixer shaker. Then, 100 μL of blood is dispensed into polypropylene 96-well microplate and pre-incubated in duplicate with 0.3% DMSO or test compound at different concentrations (from 30 to 0.01 μM, 3-fold dilutions to get 0.3% DMSO at the final) for 15 min at 37° C. After this pre-incubation, blood is triggered with CL097 (2 μg/mL from 1 mg/mL solution in water; InvivoGen, tlr1-c97) for 3 h 30 min at 37° C. Microtubes are centrifuged at 5000×g for 10 min at 4° C. and approximately 40 μL of plasma are collected into a polystyrene 96-well plate. Plasma can be analyzed freshly, within 30 min after triggering, or frozen at −80° C. Finally, the quantification of IFNα and IFNα were performed in the plasma using AlphaLISA Kit for […] according to the manufacturer's instructions and read on the Ensight (PerkinElmer).
A standard curve was created by plotting on log-log the mean absorbance on the y-axis against the concentration on the x-axis and a 4PL was made through the points. For each blood sample, the IFNα concentrations of the samples were determined from the fit.
Data were then expressed as a percentage of inhibition (PIN) for each replicate using the formula:
With mean IFNα with CL097=mean IFNα concentration of replicate samples triggered with CL097; IFNαsample1=IFNα concentration of sample 1; mean IFNα with vehicle=mean IFNα concentration of replicate samples treated with vehicle.
(§11) Curve fitting for pIC50 determination were generated using mean PIN±sem. Graphs and pIC50 calculations were derived using Prism 5.03 software (GraphPad).

[2] = tested on: CL097 triggered TNFα release in human whole blood; assay: Ex vivo human TNFα release inhibition (whole blood assay); type: cell-based; details: CL097 2 μg/mL, 3 h 30 min
Text: as §9, §10
For each blood sample, the TNFα concentrations of the samples were determined from the fit. Data were then expressed as a percentage of inhibition (PIN) for each replicate using the formula:
With mean TNFα with CL097=mean TNFα concentration of replicate samples triggered with CL097; TNFαsample1=TNFα concentration of sample 1; mean TNFα with vehicle=mean TNFα concentration of replicate samples treated with vehicle.
as §11

| Structure (SMILES) | Mouse Hepatocyte stability (Perc. remaining at 90 min) (Mouse Hepatocyte) [Perc.] | Human Hepatocyte stability (Perc. remaining at 90 min) (Human Hepatocyte) [Perc.] | IC50 [1] [nM] | IC50 [2] [nM] |
| --- | --- | --- | --- | --- |
| COc1cc2nc(C3CCOCC3)cn2cc1NC(=O)c1cccc(C(F)(F)F)n1 [Compound 2, N-(7-methoxy-2-tetrahydropyran-4-yl-imidazo[1,2-a]pyridin-6-yl)-6-(trifluoromethyl)pyridine-2-carboxamide] | – | – | > 5000 | – |
| COc1cc2nc(C3COCCO3)cn2cc1NC(=O)c1cccn(C2CCC2)c1=O (centres unmarked) [Compound 5, 1-cyclobutyl-N-[2-(1,4-dioxan-2-yl)-7-methoxy-imidazo[1,2-a]pyridin-6-yl]-2-oxo-pyridine-3-carboxamide] | – | – | 1000 to 5000 | 1000 to 5000 |
| NC(=O)c1cc2nc(C3COCCO3)cn2cc1NC(=O)c1cccc(C(F)(F)F)n1 (centres unmarked) [Compound 6, 2-(1,4-dioxan-2-yl)-6-[[6-(trifluoromethyl)pyridine-2-carbonyl]amino]imidazo[1,2-a]pyridine-7-carboxamide] | – | – | 1000 to 5000 | – |
| CNC(=O)c1cc2nc(C3COCCO3)cn2cc1NC(=O)c1cccc(C(F)(F)F)n1 (centres unmarked) [Compound 9, 2-(1,4-dioxan-2-yl)-N-methyl-6-(6-(trifluoromethyl)picolinamido)imidazo[1,2-a]pyridine-7-carboxamide] | 73.3 | 92.1 | 1000 to 5000 | – |

Other lines, results leading:

| Mouse Hepatocyte stability (Perc. remaining at 90 min) (Mouse Hepatocyte) [Perc.] | Human Hepatocyte stability (Perc. remaining at 90 min) (Human Hepatocyte) [Perc.] | IC50 [1] [nM] | IC50 [2] [nM] | Structure (SMILES) |
| --- | --- | --- | --- | --- |
| 103.95 | 101.5 | 0.1 to 500 | 0.1 to 500 | COc1cc2nc(C3COCCO3)cn2cc1NC(=O)c1cccn(C2CC2)c1=O (racemic) [Compound 1, 1-cyclopropyl-N-[2-(1,4-dioxan-2-yl)-7-methoxy-imidazo[1,2-a]pyridin-6-yl]-2-oxo-pyridine-3-carboxamide] |
| – | – | 0.1 to 500 | – | COc1cc2nc(C3COCCO3)cn2cc1NC(=O)c1cccn(C2CC2)c1=O (single isomer, unassigned) [Compound 7, 1-cyclopropyl-N-[2-(1,4-dioxan-2-yl)-7-methoxy-imidazo[1,2-a]pyridin-6-yl]-2-oxo-pyridine-3-carboxamide] |
| – | – | 0.1 to 500 | – | COc1cc2nc(C3COCCO3)cn2cc1NC(=O)c1cccn(C2CC2)c1=O (single isomer, unassigned) [Compound 8, 1-cyclopropyl-N-[2-(1,4-dioxan-2-yl)-7-methoxy-imidazo[1,2-a]pyridin-6-yl]-2-oxo-pyridine-3-carboxamide] |
| – | – | 500 to 1000 | – | COc1cc2nc(C3CCOCC3)cn2cc1NC(=O)c1cccn(C2CC2)c1=O [Compound 3, (1-cyclopropyl-N-[7-methoxy-2-(oxan-4-yl)imidazo[1,2-a]pyridin-6-yl]-2-oxopyridine-3-carboxamide)] |
| 80.6 | 99.15 | 500 to 1000 | 0.1 to 500 | CC(F)(F)c1cccc(C(=O)Nc2cn3cc(C4COCCO4)nc3cc2C(N)=O)n1 (centres unmarked) [Compound 11, 6-(6-(1,1-difluoroethyl)picolinamido)-2-(1,4-dioxan-2-yl)imidazo[1,2-a]pyridine-7-carboxamide] |
| – | – | 0.1 to 500 | 0.1 to 500 | COc1cc2nc(C3CCS(=O)(=O)CC3)cn2cc1NC(=O)c1cccn(C2CC2)c1=O [Compound 23, 1-cyclopropyl-N-(2-(1,1-dioxidotetrahydro-2H-thiopyran-4-yl)-7-methoxyimidazo[1,2-a]pyridin-6-yl)-2-oxo-1,2-dihydropyridine-3-carboxamide] |

Source: patent US20220296573A1, “NOVEL COMPOUNDS AND PHARMACEUTICAL COMPOSITIONS THEREOF FOR THE TREATMENT OF INFLAMMATORY DISORDERS” (Galapagos NV, priority 2019, published 2022)
